From publication PMC10489980, “Design of Potent and Salt-Insensitive Antimicrobial Branched Peptides” (Polymers, 2023)
Like-named read-outs stand apart in the source and are kept apart here. Residues, ends and D or L forms follow the SMILES beside them.

Tests used:
Assay type in all cases: cell-based
[1] = test system: Enterococcus faecalis ATCC 29212
Description: (§1) Ten organisms obtained from the American Type Culture Collection (ATCC; Rockville, MD) were used for antimicrobial assays. Four Gram-negative bacteria included Escherichia coli ATCC 25922, Pseudomonas aeruginosa ATCC 27853, Klebsiella oxytoca ATCC 49131, and Proteus vulgaris ATCC 49132. The three Gram-positive bacteria were Staphylococcus aureus 29213, Micrococcus luteus ATCC 49,732, and Enterococcus faecalis ATCC 29212. The three fungi were Candida albicans ATCC 37092, Candida kefyr ATCC 37095, and Candida tropicalis ATCC 37097. The clinical isolates were obtained from Singapore General Hospital (SGH). They are Enterococcus faecium, Staphylococcus aureus, Klebsiella pneumoniae, Acinetobacter baumannii, Pseudomonas aeruginosa, and Enterobacter species. The strains were incubated in trypticase soy broth (TSB), which was prepared in double distilled water and autoclaved for sterilization. TSB was purchased from Becton-Dickinson (Cockeysville, MD, USA).
(§2) Antimicrobial Assays. A sensitive and reproducible two-stage radial diffusion antimicrobial assay of Lehrer et al. was employed. A 1–4 × 10^6 colony-forming unit/mL of the test organism was mixed with 10 mL of molten underlay gel solution and poured into Petri dishes to form a uniform layer. The gel solution consisted of 10 mM sodium phosphate buffer, 0.03% TSB, and 0.02% Tween-20, with the addition of 100 mM NaCl in the case of high-salt conditions. Upon gel solidification, gel wells were made by a 3-mm diameter template in an evenly spaced array. A 5 µL aliquot of a serial half-log dilution of test peptides at seven concentrations was added to each well after removal of gel plugs. The dishes were incubated at 37 °C for 3 h to allow peptide diffusion into the underlay gels. Gels were overlaid with 10 mL of 1% agarose in 6% TSB (wt/vol). After additional incubation at 37 °C for 16–24 h, the diameter of the clear zone surrounding the wells (colony-free) was measured under a microscope. Antimicrobial activities were expressed in units (0.1 mm = 1 unit), and the MICs (in µM) were determined from the x-intercepts of the dose-response curves. Experiments were performed in triplicates.

Candida kefyr ATCC 37095 = test system: Candida kefyr ATCC 37095
Description: as §1, §2

[2] = test system: Proteus vulgaris ATCC 49132
Description: as §1, §2

[3] = test system: Klebsiella oxytoca ATCC 49131
Description: as §1, §2

[4] = test system: Pseudomonas aeruginosa ATCC 27853
Description: as §1, §2

[5] = test system: Staphylococcus aureus 29213
Description: as §1, §2

[6] = test system: Micrococcus luteus ATCC 49,732
Description: as §1, §2

[7] = test system: Escherichia coli ATCC 25922
Description: as §1, §2

[8] = test system: Candida tropicalis ATCC 37097
Description: as §1, §2

[9] = test system: Candida albicans ATCC 37092
Description: as §1, §2

[10] = ATCC 29212, radial diffusion assay, high-salt (100 mM NaCl), triplicates
[11] = ATCC 29212, radial diffusion assay, low-salt (without NaCl), triplicates
[12] = ATCC 37095, radial diffusion assay, high-salt (100 mM NaCl), triplicates
[13] = ATCC 37095, radial diffusion assay, low-salt (without NaCl), triplicates
[14] = ATCC 49132, radial diffusion assay, high-salt (100 mM NaCl), triplicates
[15] = ATCC 49132, radial diffusion assay, low-salt (without NaCl), triplicates
[16] = ATCC 49131, radial diffusion assay, high-salt (100 mM NaCl), triplicates
[17] = ATCC 49131, radial diffusion assay, low-salt (without NaCl), triplicates
[18] = ATCC 27853, radial diffusion assay, high-salt (100 mM NaCl), triplicates
[19] = ATCC 27853, radial diffusion assay, low-salt (without NaCl), triplicates
[20] = strain 29213, radial diffusion assay, high-salt (100 mM NaCl), triplicates
[21] = strain 29213, radial diffusion assay, low-salt (without NaCl), triplicates
[22] = ATCC 49,732, radial diffusion assay, high-salt (100 mM NaCl), triplicates
[23] = ATCC 49,732, radial diffusion assay, low-salt (without NaCl), triplicates
[24] = ATCC 25922, two-stage radial diffusion assay, high-salt (underlay gel 10 mM sodium phosphate, 0.03% TSB, 0.02% Tween-20, with 100 mM NaCl), 37 °C, x-intercept of dose-response curve, triplicates
[25] = ATCC 25922, two-stage radial diffusion assay, low-salt (underlay gel 10 mM sodium phosphate, 0.03% TSB, 0.02% Tween-20, without NaCl), 37 °C, x-intercept of dose-response curve, triplicates
[26] = ATCC 37097, radial diffusion assay, high-salt (100 mM NaCl), triplicates
[27] = ATCC 37097, radial diffusion assay, low-salt (without NaCl), triplicates
[28] = ATCC 37092, radial diffusion assay, high-salt (100 mM NaCl), triplicates
[29] = ATCC 37092, radial diffusion assay, low-salt (without NaCl), triplicates

MIC, E. faecalis, H-Salt [1, 10] [µM]	MIC, E. faecalis, L-Salt [1, 11] [µM]	MIC, C. kefyr, H-Salt (Candida kefyr ATCC 37095; [12]) [µM]	MIC, C. kefyr, L-Salt (Candida kefyr ATCC 37095; [13]) [µM]	MIC, P. vulgaris, H-Salt [2, 14] [µM]	MIC, P. vulgaris, L-Salt [2, 15] [µM]	MIC, K. oxytoca, H-Salt [3, 16] [µM]	MIC, K. oxytoca, L-Salt [3, 17] [µM]	MIC, P. aeruginosa, H-Salt [4, 18] [µM]	MIC, P. aeruginosa, L-Salt [4, 19] [µM]	MIC, S. aureus, H-Salt [5, 20] [µM]	MIC, S. aureus, L-Salt [5, 21] [µM]	MIC, M. luteus, H-Salt [6, 22] [µM]	MIC, M. luteus, L-Salt [6, 23] [µM]	MIC, E. coli, H-Salt [7, 24] [µM]	MIC, E. coli, L-Salt [7, 25] [µM]	MIC, C. tropicalis, H-Salt [8, 26] [µM]	MIC, C. tropicalis, L-Salt [8, 27] [µM]	MIC, C. albicans, H-Salt [9, 28] [µM]	MIC, C. albicans, L-Salt [9, 29] [µM]	Compound	other results
> 500	5.4	0.8	0.8	23.2	4.7	6.8	1.6	4.0	4.4	4.8	6.7	2.0	2.1	4.4	0.9	0.8	1.4	1.4	1.3	CC(=O)NCCC[C@H](NC(=O)[C@H](CCCNC(=N)N)NC(=O)[C@H](Cc1ccc(O)cc1)NC(=O)[C@H](CC(C)C)NC(=O)[C@@H](N)CCCNC(=N)N)C(=O)NCCC[C@H](NC(=O)[C@H](CCCNC(=N)N)NC(=O)[C@H](Cc1ccc(O)cc1)NC(=O)[C@H](CC(C)C)NC(=O)[C@@H](N)CCCNC(=N)N)C(=O)NCCC[C@H](NC(=O)[C@H](CCCNC(=N)N)NC(=O)[C@H](Cc1ccc(O)cc1)NC(=O)[C@H](CC(C)C)NC(=O)[C@@H](N)CCCNC(=N)N)C(=O)NCCC[C@H](NC(=O)[C@H](CCCNC(=N)N)NC(=O)[C@H](Cc1ccc(O)cc1)NC(=O)[C@H](CC(C)C)NC(=O)[C@@H](N)CCCNC(=N)N)C(N)=O [iO4R] (HELM PEPTIDE1{R.L.Y.R.[Orn]}|PEPTIDE2{[ac]}|PEPTIDE3{R.L.Y.R.[Orn]}|PEPTIDE4{R.L.Y.R.[Orn]}|PEPTIDE5{R.L.Y.R.[Orn].[am]}$PEPTIDE1,PEPTIDE2,5:R3-1:R2|PEPTIDE1,PEPTIDE3,5:R2-5:R3|PEPTIDE3,PEPTIDE4,5:R2-5:R3|PEPTIDE4,PEPTIDE5,5:R2-5:R3$$$V2.0)	–
–	–	–	–	–	–	–	–	–	–	–	–	–	–	–	–	–	–	–	–	CC(=O)N[C@@H](CCCNC(=O)[C@H](CCCNC(=N)N)NC(=O)[C@H](Cc1ccc(O)cc1)NC(=O)[C@H](CC(C)C)NC(=O)[C@@H](N)CCCNC(=N)N)C(=O)N[C@@H](CCCNC(=O)[C@H](CCCNC(=N)N)NC(=O)[C@H](Cc1ccc(O)cc1)NC(=O)[C@H](CC(C)C)NC(=O)[C@@H](N)CCCNC(=N)N)C(=O)N[C@@H](CCCNC(=O)[C@H](CCCNC(=N)N)NC(=O)[C@H](Cc1ccc(O)cc1)NC(=O)[C@H](CC(C)C)NC(=O)[C@@H](N)CCCNC(=N)N)C(N)=O [O3R]	MIC, E. faecalis, H-Salt ([1]; ATCC 29212, 3 h): > 500 µM; MIC, E. faecalis, L-Salt ([1]; ATCC 29212, 3 h): 49.8 µM; MIC, C. kefyr, H-Salt (Candida kefyr ATCC 37095; ATCC 37095, 3 h): 1.4 µM; MIC, C. kefyr, L-Salt (Candida kefyr ATCC 37095; ATCC 37095, 3 h): 0.8 µM; MIC, P. vulgaris, H-Salt ([2]; ATCC 49132, 3 h): 24.6 µM; MIC, P. vulgaris, L-Salt ([2]; ATCC 49132, 3 h): 6.9 µM; MIC, K. oxytoca, H-Salt ([3]; ATCC 49131, 3 h): 1.7 µM; MIC, K. oxytoca, L-Salt ([3]; ATCC 49131, 3 h): 1.7 µM; MIC, P. aeruginosa, H-Salt ([4]; ATCC 27853, 3 h): 8.9 µM; MIC, P. aeruginosa, L-Salt ([4]; ATCC 27853, 3 h): 1.9 µM; MIC, S. aureus, H-Salt ([5]; 29213, 3 h): 93.4 µM; MIC, S. aureus, L-Salt ([5]; 29213, 3 h): 9.6 µM; MIC, M. luteus, H-Salt ([6]; ATCC 49, 3 h): 16.4 µM; MIC, M. luteus, L-Salt ([6]; ATCC 49, 3 h): 5.4 µM; MIC, E. coli, H-Salt ([7]; ATCC 25922, 3 h): 8.7 µM; MIC, E. coli, L-Salt ([7]; ATCC 25922, 3 h): 0.9 µM; MIC, C. tropicalis, H-Salt ([8]; ATCC 37097, 3 h): 1.9 µM; MIC, C. tropicalis, L-Salt ([8]; ATCC 37097, 3 h): 2.1 µM; MIC, C. albicans, H-Salt ([9]; ATCC 37092, 3 h): 18.2 µM; MIC, C. albicans, L-Salt ([9]; ATCC 37092, 3 h): 6.4 µM
1.4	0.8	0.8	0.8	0.7	0.8	0.7	0.5	0.7	0.5	0.6	0.7	0.8	0.9	0.4	0.4	1.3	0.5	0.9	0.8	CC(=O)NCCCC[C@H](NC(=O)[C@H](CCCNC(=N)N)NC(=O)[C@H](Cc1ccc(O)cc1)NC(=O)[C@H](CC(C)C)NC(=O)[C@@H](N)CCCNC(=N)N)C(=O)NCCCC[C@H](NC(=O)[C@H](CCCNC(=N)N)NC(=O)[C@H](Cc1ccc(O)cc1)NC(=O)[C@H](CC(C)C)NC(=O)[C@@H](N)CCCNC(=N)N)C(=O)NCCCC[C@H](NC(=O)[C@H](CCCNC(=N)N)NC(=O)[C@H](Cc1ccc(O)cc1)NC(=O)[C@H](CC(C)C)NC(=O)[C@@H](N)CCCNC(=N)N)C(=O)NCCCC[C@H](NC(=O)[C@H](CCCNC(=N)N)NC(=O)[C@H](Cc1ccc(O)cc1)NC(=O)[C@H](CC(C)C)NC(=O)[C@@H](N)CCCNC(=N)N)C(N)=O [iK4R] (HELM PEPTIDE1{R.L.Y.R.K}|PEPTIDE2{[ac]}|PEPTIDE3{R.L.Y.R.K}|PEPTIDE4{R.L.Y.R.K}|PEPTIDE5{R.L.Y.R.K.[am]}$PEPTIDE1,PEPTIDE2,5:R3-1:R2|PEPTIDE1,PEPTIDE3,5:R2-5:R3|PEPTIDE3,PEPTIDE4,5:R2-5:R3|PEPTIDE4,PEPTIDE5,5:R2-5:R3$$$V2.0)	–
1.5	0.5	0.9	0.9	1.0	1.1	1.2	1.3	0.9	0.8	0.9	0.8	1.0	0.6	0.7	0.7	1.2	1.5	0.8	0.7	CC(C)C[C@H](NC(=O)[C@@H](N)CCCNC(=N)N)C(=O)N[C@@H](Cc1ccc(O)cc1)C(=O)N[C@@H](CCCNC(=N)N)C(=O)NCCCC[C@H](NC(=O)[C@H](CCCCNC(=O)[C@H](CCCNC(=N)N)NC(=O)[C@H](Cc1ccc(O)cc1)NC(=O)[C@H](CC(C)C)NC(=O)[C@@H](N)CCCNC(=N)N)NC(=O)[C@H](CCCCNC(=O)[C@H](CCCNC(=N)N)NC(=O)[C@H](Cc1ccc(O)cc1)NC(=O)[C@H](CC(C)C)NC(=O)[C@@H](N)CCCNC(=N)N)NC(=O)[C@H](CCCCNC(=O)[C@H](CCCNC(=N)N)NC(=O)[C@H](Cc1ccc(O)cc1)NC(=O)[C@H](CC(C)C)NC(=O)[C@@H](N)CCCNC(=N)N)NC(=O)OCC1c2ccccc2-c2ccccc21)C(N)=O [K4R]	–
